Measured values published in US11149031B2, “Substituted N-(3-fluoropropyl)-pyrrolidine compounds, processes for their preparation and therapeutic uses thereof” (SANOFI, priority 2016, dated 2021).

Experiments:
[1] = molecular target: His6-ERα298-554 Y537S mutant (ERα ligand-binding domain) (Homo sapiens (Human), UniProt P03372, Y537S); assay: Test A: biochemical antagonist activity, LanthaScreen TR-FRET ERα coactivator assay, Y537S mutant; conditions: asterisk (*): protocol using 10 nM estradiol; read-out: Antagonism Y537S IC50
Method in brief: (§1)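 IC50 values come from a 4-parameter logistic fit of the 520:495 nm TR-FRET ratio after overnight room-temperature incubation. The mix held 0.5 nM ERα 298–554 LBD, Tb-labelled anti-His6 antibody, 250 nM PGC1a peptide and 3 nM or 10 nM estradiol, pH 7.4 phosphate buffer with DTT.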

[2] = test system: MCF7 cells expressing mutant estrogen receptor Asp 538 Gly; assay: Test B: cell proliferation/viability assay (CellTiter-Glo) on MCF7 Asp 538 Gly mutant; type: cell-based; conditions: Homo sapiens, MCF7, 168 h, MCF7 cells expressing ER Asp 538 Gly mutant, 7 days of compound exposure, read-out: proliferation MCF7 D538G IC50
Method in brief: (§2)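 Compound exposure lasted 7 days (3-0.000001 μM final, 9 points) in phenol red-free MEM with 5% charcoal dextran-stripped FBS. The mutant lines grew without estradiol. Luminescent signal, minus medium-only background, was expressed as percent of untreated cells.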

[3] = test system: MCF7 cells (breast tumor cells) WT; assay: Test B: cell proliferation/viability assay (CellTiter-Glo) on MCF7 WT; type: cell-based; conditions: Homo sapiens, MCF7, 168 h, 7 days of compound exposure
Method in brief: as §2

[4] = test system: MCF7 cells expressing mutant estrogen receptor Tyr 537 Ser; assay: Test B: cell proliferation/viability assay (CellTiter-Glo) on MCF7 Tyr 537 Ser mutant; type: cell-based; conditions: Homo sapiens, MCF7, 168 h, MCF7 cells expressing ER Tyr 537 Ser mutant, 7 days of compound exposure, read-out: proliferation MCF7 Y537S IC50
Method in brief: as §2

[5] = molecular target: His6-ERα298-554 WT (ERα ligand-binding domain) (Homo sapiens (Human), UniProt P03372); assay: Test A: biochemical antagonist activity, LanthaScreen TR-FRET ERα coactivator assay, WT; conditions: asterisk (*): protocol using 10 nM estradiol; read-out: Antagonism WT IC50
Method in brief: as §1

[6] = molecular target: His6-ERα298-554 D538G mutant (ERα ligand-binding domain) (Homo sapiens (Human), UniProt P03372, D538G); assay: Test A: biochemical antagonist activity, LanthaScreen TR-FRET ERα coactivator assay, D538G mutant; conditions: asterisk (*): protocol using 10 nM estradiol; read-out: Antagonism D538G IC50
Method in brief: as §1

ERα in MCF7 cells = ERα in MCF7 cells (Homo sapiens (Human), UniProt P03372); assay: Test C: estrogen receptor degradation activity, ERα in cell western assay in MCF7 cells; type: cell-based; conditions: for DC50: 4 hours post compound addition, ERα in cell western, read-out: Degradation IC50; for % Degradation at 3 μM: 4 hours, relative to fulvestrant
Method in brief: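 Steps: seed MCF7 in phenol red-free medium containing 5% charcoal-dextran stripped FBS; next day add compound, final 3–0.000018 μM; after 4 h fix with 5% formalin plus 0.1% Triton; stain ERα overnight, then secondary at 37 °C for 60 min with Syto-64 at 2 μM; scan green and red intensities.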

Sequence of His6-ERα298-554 Y537S mutant (ERα ligand-binding domain) (P03372 298-554 Y537S): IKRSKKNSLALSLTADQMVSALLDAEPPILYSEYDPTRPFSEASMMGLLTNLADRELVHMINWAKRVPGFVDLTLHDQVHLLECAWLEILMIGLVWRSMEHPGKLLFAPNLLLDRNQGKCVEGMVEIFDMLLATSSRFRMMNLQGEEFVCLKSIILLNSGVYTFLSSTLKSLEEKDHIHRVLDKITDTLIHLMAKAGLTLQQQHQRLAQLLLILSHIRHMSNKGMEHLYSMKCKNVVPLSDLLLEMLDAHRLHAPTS
Sequence of His6-ERα298-554 WT (ERα ligand-binding domain) (P03372 298-554): as the sequence (P03372 298-554 Y537S) above, with S240Y counted along it
Sequence of His6-ERα298-554 D538G mutant (ERα ligand-binding domain) (P03372 298-554 D538G): as the sequence (P03372 298-554 Y537S) above, with S240Y, D241G counted along it
Sequence of ERα in MCF7 cells (P03372 whole entry): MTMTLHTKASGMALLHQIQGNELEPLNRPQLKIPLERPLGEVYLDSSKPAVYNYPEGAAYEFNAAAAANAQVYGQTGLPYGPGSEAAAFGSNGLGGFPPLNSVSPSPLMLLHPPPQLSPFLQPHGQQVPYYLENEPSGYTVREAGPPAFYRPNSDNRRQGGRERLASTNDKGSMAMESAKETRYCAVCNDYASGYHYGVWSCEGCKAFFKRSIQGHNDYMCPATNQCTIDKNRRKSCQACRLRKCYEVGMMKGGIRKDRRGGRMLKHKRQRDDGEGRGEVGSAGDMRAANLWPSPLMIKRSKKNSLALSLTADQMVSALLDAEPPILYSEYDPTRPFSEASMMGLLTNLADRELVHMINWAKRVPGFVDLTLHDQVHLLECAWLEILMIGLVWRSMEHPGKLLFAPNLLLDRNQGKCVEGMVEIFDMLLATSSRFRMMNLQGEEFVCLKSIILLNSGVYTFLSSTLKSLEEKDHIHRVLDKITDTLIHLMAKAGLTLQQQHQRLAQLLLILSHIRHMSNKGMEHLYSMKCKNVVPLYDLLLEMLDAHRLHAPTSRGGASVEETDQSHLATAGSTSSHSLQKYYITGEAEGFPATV

Row | SMILES | IC50 [1] [nM] | IC50 [2] [nM] | IC50 [3] [nM] | IC50 [4] [nM] | IC50 [5] [nM] | IC50 [6] [nM] | DC50 (ERα in MCF7 cells) [nM] | % Degradation at 3 μM (ERα in MCF7 cells) [%]
1 | O=C1COc2ccc(C3=C(c4ccc(O[C@H]5CCN(CCCF)C5)cc4)c4ccc(O)cc4SC3)cc2N1 [Example 38, 6-[4-[4-[(3S)-1-(3-fluoropropyl)pyrrolidin-3-yl]oxyphenyl]-7-hydroxy-2H-thiochromen-3-yl]-4H-1,4-benzoxazin-3-one] | 3710 | 16 | 12 | > 999 | 604 | > 4000 | 12 | 86
2 | CCOc1ccc(C2=C(c3ccc(O[C@H]4CCN(CCCF)C4)cc3)c3ccc(O)cc3SC2)c(C)c1 [Example 39, 3-(4-ethoxy-2-methyl-phenyl)-4-[4-[(3S)-1-(3-fluoropropyl)pyrrolidin-3-yl]oxyphenyl]-2H-thiochromen-7-ol] | 127 | 0.5 | 0.4 | 2 | 9 | 221 | 0.7 | 86
3 | CCOc1cc(F)c(C2=C(c3ccc(O[C@H]4CCN(CCCF)C4)cc3)c3ccc(O)cc3SC2)cc1F [Example 40, 3-(4-ethoxy-2,5-difluoro-phenyl)-4-[4-[(3S)-1-(3-fluoropropyl)pyrrolidin-3-yl]oxyphenyl]-2H-thiochromen-7-ol] | 605 | 2 | 1 | 20 | 44 | 901 | 0.2 | 81
4 | CCOc1ccc(C2=C(c3ccc(O[C@H]4CCN(CCCF)C4)cc3)c3ccc(O)cc3SC2)c(F)c1F [Example 41, 3-(4-ethoxy-2,3-difluoro-phenyl)-4-[4-[(3S)-1-(3-fluoropropyl)pyrrolidin-3-yl]oxyphenyl]-2H-thiochromen-7-ol] | 407 | 1 | 0.9 | 4 | 27 | 740 | 1 | 85
5 | NS(=O)(=O)c1ccc(C2=C(c3ccc(O[C@H]4CCN(CCCF)C4)cc3)c3ccc(O)cc3SC2)cc1 [Example 42, 4-[4-[4-[(3S)-1-(3-fluoropropyl)pyrrolidin-3-yl]oxyphenyl]-7-hydroxy-2H-thiochromen-3-yl]benzenesulfonamide] | > 4000 | 31 | 46 | 809 | 674 | > 4000 | 11 | 89
6 | CCOc1cc(Cl)ccc1C1=C(c2ccc(O[C@H]3CCN(CCCF)C3)cc2)c2ccc(O)cc2SC1 [Example 43, 3-(4-chloro-2-ethoxy-phenyl)-4-[4-[(3S)-1-(3-fluoropropyl)pyrrolidin-3-yl]oxyphenyl]-2H-thiochromen-7-ol] | 673 | 1 | 0.4 | 11 | 96 | 1140 | 0.8 | 97
7 | Oc1ccc2c(c1)SCC(c1ccc(OC3COC3)cc1)=C2c1ccc(O[C@H]2CCN(CCCF)C2)cc1 [Example 44, 4-[4-[(3S)-1-(3-fluoropropyl)pyrrolidin-3-yl]oxyphenyl]-3-[4-(oxetan-3-yloxy)phenyl]-2H-thiochromen-7-ol] | 1820 | > 999 | > 999 | > 999 | 172 | 2930 | 8 | 89
8 | COc1ccc(C2=C(c3ccc(O[C@H]4CCN(CCCF)C4)cc3)c3ccc(O)cc3SC2)c(F)n1 [Example 45, 3-(2-fluoro-6-methoxy-3-pyridyl)-4-[4-[(3S)-1-(3-fluoropropyl)pyrrolidin-3-yl]oxyphenyl]-2H-thiochromen-7-ol] | 14 | 0.6 | 0.1 | 2 | 1 | 34 | 0.2 | 87
